{"source": "PubChem BioAssay (NCI)", "test_in_all_cases": "inhibition of tumour cell growth, NCI panel, 384-well format", "key": {"[1]": {"system": "NCI-H23 lung"}, "[2]": {"system": "HOP-62 NSCLC"}, "[3]": {"system": "NCI-H522 lung"}, "[4]": {"system": "HCC-2998 colon"}, "[5]": {"system": "SN12C renal"}, "[6]": {"system": "HT29 colon"}, "[7]": {"system": "SK-MEL-5 melanoma"}, "[8]": {"system": "SR leukemia"}, "[9]": {"system": "A498 renal"}, "[10]": {"system": "COLO 205 colon"}, "[11]": {"system": "MOLT-4 leukemia"}, "[12]": {"system": "HCT-116 colon"}, "[13]": {"system": "NCI/ADR-RES ovarian"}, "[14]": {"system": "HCT-15 colon"}, "[15]": {"system": "MDA-MB-468 breast"}, "[16]": {"system": "UO-31 renal"}, "[17]": {"system": "NCI-H322M lung"}, "[18]": {"system": "T-47D breast"}, "[19]": {"system": "U251 glioblastoma"}, "[20]": {"system": "SK-MEL-2 melanoma"}, "[21]": {"system": "MDA-MB-231 breast"}, "[22]": {"system": "NCI-H460 NSCLC"}, "[23]": {"system": "OVCAR-8 ovarian"}, "[24]": {"system": "TK-10 renal"}, "[25]": {"system": "CCRF-CEM leukemia"}, "[26]": {"system": "SK-MEL-28 melanoma"}, "[27]": {"system": "RPMI-8226 leukemia"}}, "note": "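Here, GI50 denotes the concentration required for 50% inhibition of growth. TGI marks complete inhibition of growth.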", "data": [{"smiles": "Cc1sc2c(c1C)C(c1ccc(Cl)cc1)=N[C@@H](CC(=O)Nc1ccc(OCCOCCOCCOCCNc3cccc4c3C(=O)N(C3CCC(=O)NC3=O)C4=O)cc1)c1nnc(C)n1-2", "note": "(some centres undefined)", "values": [{"measurement": "GI50", "setting": "[1]", "result": 182, "unit": "nM"}, {"measurement": "TGI", "setting": "[1]", "result": 443, "unit": "nM"}, {"measurement": "GI50", "setting": "[2]", "result": 22.4, "unit": "nM"}, {"measurement": "TGI", "setting": "[2]", "result": 75.5, "unit": "nM"}, {"measurement": "GI50", "setting": "[3]", "result": 37.1, "unit": "nM"}, {"measurement": "TGI", "setting": "[3]", "result": 182, "unit": "nM"}, {"measurement": "GI50", "setting": "[4]", "result": "< 10", "unit": "nM"}, {"measurement": "TGI", "setting": "[4]", "result": 21.7, "unit": "nM"}, {"measurement": "GI50", "setting": "[5]", "result": 37.6, "unit": "nM"}, {"measurement": "TGI", "setting": "[5]", "result": "> 100000", "unit": "nM"}, {"measurement": "GI50", "setting": "[6]", "result": 106, "unit": "nM"}, {"measurement": "TGI", "setting": "[6]", "result": 434, "unit": "nM"}, {"measurement": "GI50", "setting": "[7]", "result": 30, "unit": "nM"}, {"measurement": "TGI", "setting": "[7]", "result": 118, "unit": "nM"}, {"measurement": "GI50", "setting": "[8]", "result": 19.4, "unit": "nM"}, {"measurement": "TGI", "setting": "[8]", "result": 69, "unit": "nM"}, {"measurement": "GI50", "setting": "[9]", "result": 166, "unit": "nM"}, {"measurement": "TGI", "setting": "[9]", "result": "> 100000", "unit": "nM"}, {"measurement": "GI50", "setting": "[10]", "result": 10.7, "unit": "nM"}, {"measurement": "TGI", "setting": "[10]", "result": 44.6, "unit": "nM"}, {"measurement": "GI50", "setting": "[11]", "result": "< 10", "unit": "nM"}, {"measurement": "TGI", "setting": "[11]", "result": 19.8, "unit": "nM"}, {"measurement": "GI50", "setting": "[12]", "result": 56.8, "unit": "nM"}, {"measurement": "TGI", "setting": "[12]", "result": 13600, "unit": "nM"}, {"measurement": "GI50", "setting": "[13]", "result": 21800, "unit": "nM"}, {"measurement": "TGI", "setting": "[13]", "result": "> 100000", "unit": "nM"}, {"measurement": "GI50", "setting": "[14]", "result": 121, "unit": "nM"}, {"measurement": "TGI", "setting": "[14]", "result": 278, "unit": "nM"}, {"measurement": "GI50", "setting": "[15]", "result": 15.2, "unit": "nM"}, {"measurement": "TGI", "setting": "[15]", "result": 39.9, "unit": "nM"}, {"measurement": "GI50", "setting": "[16]", "result": 305, "unit": "nM"}, {"measurement": "TGI", "setting": "[16]", "result": "> 100000", "unit": "nM"}, {"measurement": "GI50", "setting": "[17]", "result": 16.4, "unit": "nM"}, {"measurement": "TGI", "setting": "[17]", "result": 78.9, "unit": "nM"}, {"measurement": "GI50", "setting": "[18]", "result": "< 10", "unit": "nM"}, {"measurement": "TGI", "setting": "[18]", "result": "< 10", "unit": "nM"}, {"measurement": "GI50", "setting": "[19]", "result": 186, "unit": "nM"}, {"measurement": "TGI", "setting": "[19]", "result": 80100, "unit": "nM"}, {"measurement": "GI50", "setting": "[20]", "result": "< 10", "unit": "nM"}, {"measurement": "TGI", "setting": "[20]", "result": 25.5, "unit": "nM"}, {"measurement": "GI50", "setting": "[21]", "result": "< 10", "unit": "nM"}, {"measurement": "TGI", "setting": "[21]", "result": 24, "unit": "nM"}, {"measurement": "GI50", "setting": "[22]", "result": 380, "unit": "nM"}, {"measurement": "TGI", "setting": "[22]", "result": "> 100000", "unit": "nM"}, {"measurement": "GI50", "setting": "[23]", "result": "< 10", "unit": "nM"}, {"measurement": "TGI", "setting": "[23]", "result": 18.7, "unit": "nM"}, {"measurement": "GI50", "setting": "[24]", "result": 190, "unit": "nM"}, {"measurement": "TGI", "setting": "[24]", "result": "> 100000", "unit": "nM"}, {"measurement": "GI50", "setting": "[25]", "result": "< 10", "unit": "nM"}, {"measurement": "TGI", "setting": "[25]", "result": 11.9, "unit": "nM"}, {"measurement": "GI50", "setting": "[26]", "result": 130, "unit": "nM"}, {"measurement": "TGI", "setting": "[26]", "result": 799, "unit": "nM"}, {"measurement": "GI50", "setting": "[27]", "result": "< 10", "unit": "nM"}, {"measurement": "TGI", "setting": "[27]", "result": "< 10", "unit": "nM"}]}]}
